From patent US8338473B2, “Derivatives of psammaplin A, a method for their synthesis and their uses for the prevention or treatment of cancer” (Centre National de la Recherche Scientifique, priority 2007, dated 2012) come the findings set out here.

For one series, the system named is TRAIL. Nature of the series: TRAIL expression (RT-PCR and ELISA) in U937 cells. In kind it is cell-based, human. The settings on record: protein after 24 hrs. As to the method: FIG. 5: a) Analysis of the histone H3 acetylation levels on the TRAIL promoter regulatory region and on the TRAIL gene first intron carried out Chip and qPCR in U937 cells after the indicated time course with UVI5008; the ‘NoAb’ represents the negative control; b) TRAIL mRNA expression after the indicated times of incubation with UVI5008; G6PDH levels have been used for equal loading; c) TRAIL protein expression levels measured by ELISA assay in U937 cells after 24 hrs treatment with UVI5008.

The test system of the next series is A-375 cells. Nature of the series: MTT cytotoxicity assay, A-375. The conditions noted are these: read-out: IC50 values, MTT cytotoxicity assay; A-375, 48 h.
The test system of the next series is p53. Put plainly: p53 acetylation in MCF7 cells (Western blot). It is filed as cell-based, human. The settings on record: MCF7, 6 hrs, co-treatment with Etoposide 25 μM. As to the method: FIG. 13B: western blot of MCF7 cells treated with etoposide alone or in presence of sirtinol (a known SIRT2 inhibitor) and with uvi5008 concentrations of 50 μM and 5 μM.
MCF7 cells (human breast cancer cells) have been growth following standard procedure and have been treated for 6 hrs with the indicated compounds in presence of 25 μM Etoposide. Total protein extracts have been run on SDS gel and blotted. Western Blot has been carried out by using the anti p53 ac382 (Abcam) following standard procedures. ERKs (Santa Cruz) have been used for equal loading control.

A further series concerns the target human recombinant SIRT2 (Homo sapiens, UniProt Q8IXJ6). Put plainly: SIRT activity assay, SIRT2. It is filed as biochemical. How it is done: FIG. 13A: % of SIRT1 and SIRT2 activity with controls, sodium suramine, a sirtuin inhibitor, and resveratrol a SIRT1 activator, and with UVI5008 at concentrations of 50 μM and 5 μM.
The SIRT activity assay was performed using the human recombinant SIRT1 and SIRT2. SIRT1 (1 U/well) or SIRT2 (5 U/well), respectively, were incubated (37° C. for 1 h) with the SIRT1/2 substrate (corresponding to a p53 acetylated peptide) in the presence of NAD^+ and various concentrations of tested compounds (sirtuins activators or inhibitors). Activity was measured as fluorescence intensity. As internal controls, sodium suramin, a sirtuin inhibitor, and resveratrol, a SIRT1 activator, have been included. The fluorescence was measured on a fluorometric reader (Inphinite 200 TECAN) with excitation set at 360 nm and emission detection set at 460 nm

The next series deals with HDAC4 (Homo sapiens, UniProt P56524). Put plainly: HDAC4 enzymatic assay (IP-HDAC4, 3H-acetyl release). In kind it is biochemical. The settings on record: IP-HDAC4 incubated with inhibitor 24 hrs. How it is done:
FIG. 1: a) Cell cycle analysis of U937 cells treated for 30 hrs with the indicated compounds used at 1 and 5 μM; b) Caspase 3 apoptotic assay of the indicated compounds after 24 hrs of treatment in the U937 cells; c) Tubulin acetylation and p21 expression levels at 6 and 16 hrs after treatment with the indicated compounds; total tubulin expression levels are used for equal loading; d) Histone H3 acetylation and K9 H3 methylation expression levels at 6 and 16 hrs after treatment with the indicated compounds; total tubulin expression levels are used for equal loading; e) K9, K14, K18 histone H3 acetylation expression levels at 6 and 16 hrs after treatment with the indicated compounds; total ERKs expression levels are used for equal loading; f) HDAC1 enzymatic assay: IP-HDAC1 is incubated with the indicated inhibitors for 24 Hrs; activity is measured as ^3H-acetyl release; g) HDAC4 enzymatic assay: IP-HDAC4 is incubated with the indicated inhibitors for 24 hrs; activity is measured as ^3H-acetyl release.

Sequence of human recombinant SIRT2 (Q8IXJ6 whole entry): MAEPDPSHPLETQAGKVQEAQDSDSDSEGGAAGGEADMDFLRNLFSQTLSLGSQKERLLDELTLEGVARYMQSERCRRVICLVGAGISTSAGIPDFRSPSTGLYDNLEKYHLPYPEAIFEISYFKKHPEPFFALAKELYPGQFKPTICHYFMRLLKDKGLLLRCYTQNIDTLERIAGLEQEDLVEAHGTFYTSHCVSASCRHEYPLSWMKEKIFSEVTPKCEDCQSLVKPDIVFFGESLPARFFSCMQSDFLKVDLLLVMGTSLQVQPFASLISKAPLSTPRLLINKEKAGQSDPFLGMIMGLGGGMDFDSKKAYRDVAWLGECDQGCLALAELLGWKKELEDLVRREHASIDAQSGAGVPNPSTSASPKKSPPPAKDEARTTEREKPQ
Sequence of HDAC4 (P56524 whole entry, species assumed): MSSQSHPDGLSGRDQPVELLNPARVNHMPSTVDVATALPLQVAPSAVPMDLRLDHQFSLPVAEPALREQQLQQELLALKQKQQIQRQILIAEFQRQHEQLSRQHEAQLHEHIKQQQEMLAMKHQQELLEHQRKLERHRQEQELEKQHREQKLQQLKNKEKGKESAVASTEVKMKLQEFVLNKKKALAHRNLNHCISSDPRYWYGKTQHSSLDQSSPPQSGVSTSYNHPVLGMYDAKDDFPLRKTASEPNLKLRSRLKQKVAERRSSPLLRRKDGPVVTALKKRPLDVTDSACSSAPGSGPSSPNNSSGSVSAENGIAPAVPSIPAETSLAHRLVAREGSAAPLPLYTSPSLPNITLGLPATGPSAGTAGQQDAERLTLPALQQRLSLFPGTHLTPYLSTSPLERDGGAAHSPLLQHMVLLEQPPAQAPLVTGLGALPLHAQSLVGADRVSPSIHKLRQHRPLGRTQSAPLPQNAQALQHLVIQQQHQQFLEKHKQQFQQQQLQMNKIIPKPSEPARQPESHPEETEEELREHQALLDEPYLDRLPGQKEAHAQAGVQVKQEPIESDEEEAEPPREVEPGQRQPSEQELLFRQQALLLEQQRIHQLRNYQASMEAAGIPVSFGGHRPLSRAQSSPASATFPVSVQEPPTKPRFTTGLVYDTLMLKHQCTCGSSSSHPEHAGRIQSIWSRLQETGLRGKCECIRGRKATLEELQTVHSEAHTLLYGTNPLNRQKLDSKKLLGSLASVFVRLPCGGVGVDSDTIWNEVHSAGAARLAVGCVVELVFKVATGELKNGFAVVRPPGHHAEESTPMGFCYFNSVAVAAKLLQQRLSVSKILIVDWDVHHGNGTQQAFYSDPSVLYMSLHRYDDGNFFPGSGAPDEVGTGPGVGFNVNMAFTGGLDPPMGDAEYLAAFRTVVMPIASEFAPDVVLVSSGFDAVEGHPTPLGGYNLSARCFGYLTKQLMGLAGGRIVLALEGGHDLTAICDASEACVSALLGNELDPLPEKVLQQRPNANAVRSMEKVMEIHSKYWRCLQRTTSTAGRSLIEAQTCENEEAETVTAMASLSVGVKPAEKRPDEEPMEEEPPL
Sequence of HDAC4 (O15379 whole entry partner, species assumed): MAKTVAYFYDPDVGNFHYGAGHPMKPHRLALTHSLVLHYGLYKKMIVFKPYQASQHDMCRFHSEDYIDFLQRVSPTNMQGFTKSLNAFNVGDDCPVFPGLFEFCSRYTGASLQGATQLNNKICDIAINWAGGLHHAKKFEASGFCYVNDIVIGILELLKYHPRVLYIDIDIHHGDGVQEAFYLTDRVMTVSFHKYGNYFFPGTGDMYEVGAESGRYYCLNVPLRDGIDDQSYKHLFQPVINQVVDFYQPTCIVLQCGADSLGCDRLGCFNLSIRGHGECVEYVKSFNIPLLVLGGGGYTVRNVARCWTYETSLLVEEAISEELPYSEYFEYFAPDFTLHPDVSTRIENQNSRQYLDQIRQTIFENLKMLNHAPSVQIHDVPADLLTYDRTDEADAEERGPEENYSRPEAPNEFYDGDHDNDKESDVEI
Procedure for A-375 cells: Plates were kept in the humidified CO2 (5%) incubator overnight so that cells get attached to the bottom. […] Viable cells cleave the MTT tetrazolium ring into a dark blue formazan reaction product, whereas dead cells remain colorless. The MTT-containing medium was gently removed and DMSO was added in each well. After shaking, the plates were read in absorbance at 540 nm. All results are expressed as the average of three wells. Percent cytotoxicity was measured of each compound and represented in terms of its IC50 values.

As for `O=C(NCCSSCCNC(=O)C(Cc1c[nH]c2ccc(Br)cc12)=NO)C(Cc1c[nH]c2ccc(Br)cc12)=NO` [UVI5008], the “TRAIL expression at mRNA and protein levels” value in the series on TRAIL is recorded as “increased expression”. Besides, the IC50 in the series with A-375 cells worked out at 3.1 ± 0.5 µM; at human recombinant SIRT2, 7.8 µM. Also, in the series with p53, the “p53 acetylation levels (readout of SIRT inhibition)” value was “hyperacetylation”. Moreover, at HDAC4, the “HDAC4 deacetylase activity inhibition” value is on record as “nearly completely blocked”.
